Laboratory results as given in ChEMBL document CHEMBL1201862, “PubChem BioAssay data set” (2004).
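Cells were grown in 96-well plates and exposed to each compound for 48 hours at five concentrations; endpoints were interpolated linearly between bracketing concentrations, or set to the highest concentration if not reached. GI50 = concentration required for 50% inhibition of growth.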 The source made the active and inactive calls. Rule as the data show it: active = GI50 up to about 1.1 µM and inactive = higher.

Assays:
Test in all cases: NCI anticancer screen, dose series, 48 h
SNB-19 = tested on: SNB-19
ACHN = tested on: ACHN
HCT-15 = tested on: HCT-15
NCI-H23 = tested on: NCI-H23
LXFL 529 = tested on: LXFL 529
OVCAR-4 = tested on: OVCAR-4
A549 = tested on: A549
Malme-3M = tested on: Malme-3M
786-0 = tested on: 786-0
SF-295 = tested on: SF-295
SK-MEL-28 = tested on: SK-MEL-28
K562 = tested on: K562
HOP-92 = tested on: HOP-92
SNB-75 = tested on: SNB-75
MCF7 = tested on: MCF7
RPMI-8226 = tested on: RPMI-8226
BT-549 = tested on: BT-549
SK-MEL-5 = tested on: SK-MEL-5
SR = tested on: SR
DU-145 = tested on: DU-145

Compound | GI50 (SNB-19) | GI50 (ACHN) | GI50 (HCT-15) [µM] | GI50 (NCI-H23) | GI50 (LXFL 529) | GI50 (OVCAR-4) | GI50 (A549) | GI50 (Malme-3M) | GI50 (786-0) | GI50 (SF-295) | GI50 (SK-MEL-28) | GI50 (K562) | GI50 (HOP-92) | GI50 (SNB-75) | GI50 (MCF7) | GI50 (RPMI-8226) | GI50 (BT-549) | GI50 (SK-MEL-5) | GI50 (SR) | GI50 (DU-145)
CSc1nc(NC2OC(COC(C)=O)C(OC(C)=O)C(OC(C)=O)C2OC(C)=O)c(/N=C\C=N/c2c(NC3OC(COC(C)=O)C(OC(C)=O)C(OC(C)=O)C3OC(C)=O)nc(SC)n(C)c2=O)c(=O)n1C (configuration not stated) | 38.6 µM (inactive) | 83.9 µM (inactive) | > 100 | > 70 µM (inactive) | > 100 µM (inactive) | > 100 µM (inactive) | > 100 µM (inactive) | 81.5 µM (inactive) | 34 µM (inactive) | 33.3 µM (inactive) | > 100 µM (inactive) | > 100 µM (inactive) | 25.9 µM (inactive) | 12.2 µM (inactive) | > 100 µM (inactive) | > 100 µM (inactive) | > 65.6 µM (inactive) | > 100 µM (inactive) | > 100 µM (inactive) | > 100 µM (inactive)
O=C1C(=O)N(c2cccc(C(F)(F)F)c2)C(=O)C(=O)C1c1nc2ccccc2s1 | > 100 µM (inactive) | > 65.2 µM (inactive) | 39.6 | > 59.7 µM (inactive) | 52 µM (inactive) | > 92.5 µM (inactive) | > 100 µM (inactive) | 68.1 µM (inactive) | 72.3 µM (inactive) | 65.3 µM (inactive) | > 100 µM (inactive) | 51.2 µM (inactive) | > 100 µM (inactive) | > 49.5 µM (inactive) | 45.1 µM (inactive) | > 80 µM (inactive) | > 100 µM (inactive) | > 100 µM (inactive) | 36.3 µM (inactive) | > 100 µM (inactive)
O=C(O)CCc1nn2c(nc1=O)sc1ccc3ccccc3c12 | > 100 µM (inactive) | > 100 µM (inactive) | > 100 | > 100 µM (inactive) | > 100 µM (inactive) | > 100 µM (inactive) | > 100 µM (inactive) | > 100 µM (inactive) | > 100 µM (inactive) | > 100 µM (inactive) | > 100 µM (inactive) | > 100 µM (inactive) | > 100 µM (inactive) | > 100 µM (inactive) | – | > 100 µM (inactive) | – | > 100 µM (inactive) | > 100 µM (inactive) | –
